The source of these data is US20170107207A1, “AMINOPYRAZOLONE DERIVATIVE” (DAIICHI SANKYO COMPANY, LIMITED, priority 2014, published 2017).

Molecules are shown by their SMILES. Structures can show the parent of a compound that is named as a salt.

Assay [1] has as its system human lymphoma cell line RAMOS cells. As to the kind of experiment: Cell growth inhibition test using RAMOS cell, ATP assay (CellTiter-Glo). Type of assay: cell-based. The following applies: cultured 3 days, 50% growth inhibition concentration. The method, then:
A cell growth inhibition test was carried out by treating human lymphoma cell line RAMOS cells with a test compound for a given period and then counting the number of viable cells by MTT assay or CellTiter-Glo Luminescent Cell Viability Assay (manufactured by Promega Corp.; hereinafter, referred to as ATP assay).
RAMOS cells were inoculated at 4000 cells/40 μL/well to a 384-well plate containing the compound prepared in advance at predetermined concentrations. The cells thus inoculated were cultured at 37° C. for 3 days under 5% CO2. In order to measure a cell survival rate, CellTiter-Glo Reagent was added in an amount corresponding to 1/4 of the amount of the culture solution at the day of cell inoculation and at the final culture date and stirred at room temperature for 2 minutes. Then, luminescence intensity was measured using a plate reader. The cell survival rate was calculated according to the expression given below.
The number of viable cells and luminescence intensity have been confirmed to correlate with each other. Therefore, the rate of cell growth was calculated according to the following expression: Rate of cell growth (T/C %) of a test compound-supplemented well=100×[(B−C)/(A−C)] wherein A represents the luminescence intensity (final culture date) of a test compound-free well; B represents the luminescence intensity (final culture date) of a test compound-containing well; and C represents the luminescence intensity (day of cell inoculation) of a well at the start of contact of the cells with the test compound.
T/C % at each concentration of the test compound was determined. The concentration at which the test compound offered 50% growth rate was calculated as a GI50 value from the growth rates at two points interpolating 50% and the concentrations, and is shown in Table 56.
Background: In ATP-based viability assays light output follows the ATP content of the culture.

Assay [2] addresses T1, TIP48/TIP49 complex (Homo sapiens, UniProt Q9Y230+Q9Y265).
T1 construct: made in house; host or cells: E. coli
Kind of assay: ATPase assay of TIP48/TIP49 complex (ADP-Glo). The format is biochemical. The following applies: concentration at which the ATPase activity was inhibited by 50%. The source says:
The ATPase activity of the TIP48/TIP49 complex can be measured by use of an ATPase assay described below in Test Examples 1 and 2. The ATPase activity of the TIP48/TIP49 complex can be measured, as described below in the Test Examples, for example, by using recombinant human TIP48 and TIP49 proteins (hereinafter, referred to as rTIP48 and rTIP49) and ATP in the presence or absence of a test compound and measuring the amount of ADP formed through hydrolysis by the ATPase activity of the TIP48/TIP49 complex, using ADP-Glo. Alternatively, the ATPase activity of the TIP48/TIP49 complex can be measured by a method described in, for example, J. Mol. Biol. 366, 172-179 (2007).
An ATPase assay of a TIP48/TIP49 complex was conducted using rTIP48 and rTIP49. Human TIP48 and TIP49 DNAs were purchased from Open Biosystems. Human TIP48 and TIP49 cDNAs cloned by PCR using the purchased DNAs were each integrated into plasmids for expression in E. coli and expressed in E. coli to obtain rTIP48 and rTIP49.
A test compound was dissolved at 10 mM using DMSO. The solution was diluted to 10 concentrations as 4-fold serial dilutions from 10 mM using DMSO.
A 2×assay buffer (100 mM Tris-HCl, pH 7.5, 100 mM NaCl, 40 mM MgCl2, 2 mM DTT, 20 μM ATP, and 0.2 mg/mL BSA) was dispensed at 24.5 μL/well to a 384-well assay plate.
Test compound solutions were dispensed thereto at 1 μL/well. Subsequently, the solution in each well was mixed using a plate mixer.
rTIP48 and rTIP49 were diluted to a concentration of 50 μg/mL using sterilized water. The diluted solution was dispensed at 24.5 μL/well to the 384-well assay plate. Subsequently, the solution in each well was mixed using a plate mixer (final concentration: 24.5 μg/mL) (concentration of each test compound solution: 200 μM, 50 μM, 12.5 μM, 3.12 μM, 0.78 μM, 0.20 μM, 0.049 μM, 0.012 μM, 0.003 μM, and 0.0007 μM; DMSO concentration: 2%).
After the mixing using the plate mixer, the assay plate was left standing at room temperature for 1.5 hours.
5 μL of the solution in each well was transferred to a white assay plate, and ADP-Glo Reagent from ADP-Glo Kinase Assay (Promega Corp., catalog No. V9101) was dispensed thereto at 5 μL/well. After completion of the reaction, the plate was left standing at room temperature for 40 minutes. Kinase Detection Reagent was further dispensed thereto at 5 μL/well, and the plate was left standing at room temperature for 30 minutes. Then, luminescence intensity was measured using a plate reader.
The ATPase inhibitory activity was calculated according to the expression given below.
The luminescence intensity of a well supplemented with the test compound and the TIP48/TIP49 complex was defined as A. The luminescence intensity of a well supplemented with only the TIP48/TIP49 complex was defined as B. The luminescence intensity of a well supplemented with neither the test compound nor the TIP48/TIP49 complex was defined as C. The ratio between the test compound-supplemented group and the test compound-nonsupplemented group (T/C value) was determined according to the following calculation expression:
The dose-response curve was calculated using GraphPad Prism 4 from the concentration of each of the serially diluted test compounds and the ATPase inhibitory activity (%) at this concentration.

T1 sequence (Q9Y230 whole entry): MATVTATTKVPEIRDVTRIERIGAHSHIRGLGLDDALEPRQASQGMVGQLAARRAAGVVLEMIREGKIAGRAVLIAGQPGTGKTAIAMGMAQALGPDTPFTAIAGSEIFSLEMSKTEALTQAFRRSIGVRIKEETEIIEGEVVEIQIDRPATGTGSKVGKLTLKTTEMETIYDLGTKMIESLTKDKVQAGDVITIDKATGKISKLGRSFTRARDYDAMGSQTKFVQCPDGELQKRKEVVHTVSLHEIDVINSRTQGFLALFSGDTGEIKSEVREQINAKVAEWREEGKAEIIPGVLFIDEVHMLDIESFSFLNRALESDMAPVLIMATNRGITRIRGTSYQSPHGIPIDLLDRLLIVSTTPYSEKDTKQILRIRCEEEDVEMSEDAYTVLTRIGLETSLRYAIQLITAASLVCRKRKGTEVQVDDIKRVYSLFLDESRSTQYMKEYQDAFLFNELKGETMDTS
T1 sequence (Q9Y265 whole entry): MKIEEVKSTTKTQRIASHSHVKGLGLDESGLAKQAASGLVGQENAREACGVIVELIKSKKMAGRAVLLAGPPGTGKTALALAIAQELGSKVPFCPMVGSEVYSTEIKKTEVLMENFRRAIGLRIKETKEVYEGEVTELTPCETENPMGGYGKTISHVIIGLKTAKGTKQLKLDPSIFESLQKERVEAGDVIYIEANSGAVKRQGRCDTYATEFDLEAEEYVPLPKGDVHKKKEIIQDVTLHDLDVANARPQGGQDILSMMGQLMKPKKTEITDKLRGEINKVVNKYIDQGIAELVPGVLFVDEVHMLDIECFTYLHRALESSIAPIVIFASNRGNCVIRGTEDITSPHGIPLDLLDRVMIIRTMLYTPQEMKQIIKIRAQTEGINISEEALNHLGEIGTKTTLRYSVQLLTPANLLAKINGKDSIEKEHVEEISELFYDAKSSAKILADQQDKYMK

In the case of `CCOc1ccc(Cl)cc1C(=O)NCC(C)(C)CC(=O)Nc1c(C(C)(C)CN(C)C)n(C)n(-c2ccccc2)c1=O` [Example 84, 5-Chloro-N-[4-({5-[2-(dimethylamino)-1,1-dimethylethyl]-1-methyl-3-oxo-2-phenyl-2,3-dihydro-1H-pyrazol-4-yl}amino)-2,2-dimethyl-4-oxobutyl]-2-ethoxybenzamide], in assay [1] (Homo sapiens, Ramos, 72 h), the GI50 – broadly, the concentration at which growth is held to half of that of the control – was 170 nM. Besides, in assay [2], it took 80 nM to reach half-maximal inhibition (IC50).

On to `CCOc1ccc(Cl)cc1C(=O)NCC(CF)(CF)CC(=O)Nc1c(COC)n(C)n(-c2ccccc2)c1=O` [Example 148, N-(2,2-Bis(fluoromethyl)-4-{[5-(methoxymethyl)-1-methyl-3-oxo-2-phenyl-2,3-dihydro-1H-pyrazol-4-yl]amino}-4-oxobutyl)-5-chloro-2-ethoxybenzamide], for which the GI50 in assay [1] (Homo sapiens, Ramos, 72 h) stood at 230 nM. For the same molecule, the IC50 – broadly, the concentration needed to halve the response being measured – in assay [2] came out at 83 nM.

`COCOc1cc(Cl)c(Cl)cc1C(=O)NCC(C)(C)CC(=O)Nc1c(C(C)CN(C)C)n(C)n(-c2ccccc2)c1=O` (stereo not drawn) [Example 75, 4,5-Dichloro-N-[4-({5-[2-(dimethylamino)-1-methylethyl]-1-methyl-3-oxo-2-phenyl-2,3-dihydro-1H-pyrazol-4-yl}amino)-2,2-dimethyl-4-oxobutyl]-2-(methoxymethoxy)benzamide]: in assay [1] (Homo sapiens, Ramos, 72 h), the concentration for 50% growth inhibition (GI50) turned out to be 270 nM. The molecule further came in with an IC50 in assay [2] of 99 nM.

On to `CCOc1cc(F)c(Cl)cc1C(=O)NCC(C)(C)CC(=O)Nc1c(CCCN(C)C)n(C)n(-c2ccccc2)c1=O` [Example 64, 5-Chloro-N-[4-({5-[3-(dimethylamino)propyl]-1-methyl-3-oxo-2-phenyl-2,3-dihydro-1H-pyrazol-4-yl}amino)-2,2-dimethyl-4-oxobutyl]-2-ethoxy-4-fluorobenzamide monohydrochloride], for which the 50% growth inhibitory concentration (GI50) in assay [1] (Homo sapiens, Ramos, 72 h) turned out to be 190 nM. Besides, half-maximal inhibition in assay [2] (IC50) was put at 99 nM.

`CCOc1ccc(Cl)cc1C(=O)NCC(C)(C)CC(=O)Nc1c(CCN(C)C)n(C)n(-c2cccc(Cl)n2)c1=O` [Example 47, 5-Chloro-N-(4-{[1-(6-chloro-2-pyridyl)-3-(2-dimethylamino)ethyl]-2-methyl-5-oxopyrazol-4-yl}amino-2,2-dimethyl-4-oxobutyl)-2-ethoxybenzamide]: the GI50 in assay [1] (Homo sapiens, Ramos, 72 h) came to 250 nM. Besides, in assay [2], 37 nM corresponded to half-maximal inhibition (IC50).

In assay [1] (Homo sapiens, Ramos, 72 h), `CCOc1ncc(Cl)cc1C(=O)NCC(C)(C)CC(=O)Nc1c(CCN(C)C)n(CC)n(-c2ccccc2)c1=O` [Example 42, 5-Chloro-N-[4-({5-[2-(dimethylamino)ethyl]-1-ethyl-3-oxo-2-phenyl-2,3-dihydro-1H-pyrazol-4-yl}amino)-2,2-dimethyl-4-oxobutyl]-2-ethoxypyridine-3-carboxamide] gave a concentration for 50% growth inhibition (GI50) of 150 nM. This molecule also returned a half-maximal inhibitory concentration (IC50) in assay [2] of 80 nM.

In turn, `COCOc1cc(F)c(Cl)cc1C(=O)NCC(C)(C)CC(=O)Nc1c(CCN(C)C)n(C)n(-c2ccccc2)c1=O` [Example 29, 5-Chloro-N-[4-({5-[2-(dimethylamino)ethyl]1-methyl-3-oxo-2-phenyl-2,3-dihydro-1H-pyrazol-4-yl}amino)-2,2-dimethyl-4-oxobutyl]-4-fluoro-2-(methoxymethoxy)benzamide] showed a GI50 in assay [1] (Homo sapiens, Ramos, 72 h) of 150 nM. For the same molecule, in assay [2], the half-inhibitory concentration (IC50) is 48 nM.

For `CCOc1ccc(Cl)cc1C(=O)NCC(C)(C)CC(=O)Nc1c(CCCC(=O)N(C)C)n(C)n(-c2ccccc2)c1=O` [Example 129, 5-Chloro-N-[4-({5-[4-(dimethylamino)-4-oxobutyl]-1-methyl-3-oxo-2-phenyl-2,3-dihydro-1H-pyrazol-4-yl}amino)-2,2-dimethyl-4-oxobutyl]-2-ethoxybenzamide], it took 190 nM to inhibit growth in assay [1] (Homo sapiens, Ramos, 72 h) by half (GI50). In assay [2], the 50% inhibitory concentration (IC50) was determined as 52 nM.

In turn, `COCOc1ccc(Cl)cc1C(=O)NCC(C)(C)CC(=O)Nc1c(CCN(C)C)n(C)n(-c2ccccc2)c1=O` [Example 28, 5-Chloro-N-[4-({5-[2-(dimethylamino)ethyl]1-methyl-3-oxo-2-phenyl-2,3-dihydro-1H-pyrazol-4-yl}amino)-2,2-dimethyl-4-oxobutyl]-2-(methoxymethoxy)benzamide] displayed a GI50 in assay [1] (Homo sapiens, Ramos, 72 h) of 200 nM. The concentration for half-maximal inhibition (IC50) in assay [2] was 48 nM.

`CCOc1ccc(Cl)cc1C(=O)NCC(C)(C)CC(=O)Nc1c(CCN(C)C)n(C)n(-c2ccccc2F)c1=O` [Example 45, 5-Chloro-N-[4-({3-[2-(dimethylamino)ethyl]-1-(2-fluorophenyl)-2-methyl-5-oxopyrazol-4-yl}amino)-2,2-dimethyl-4-oxobutyl]-2-ethoxybenzamide] came in with a 50% growth inhibitory concentration (GI50) in assay [1] (Homo sapiens, Ramos, 72 h) of 480 nM. In addition, in assay [2], the IC50 came to 77 nM.

In turn, `CCOc1ncc(Cl)cc1C(=O)NCC(C)(C)CC(=O)Nc1c(C(CN(C)C)OC)n(C)n(-c2ccccc2)c1=O` (stereo not drawn) [Example 81, 5-Chloro-N-[4-({5-[2-(dimethylamino)-1-methoxyethyl]-1-methyl-3-oxo-2-phenyl-2,3-dihydro-1H-pyrazol-4-yl}amino)-2,2-dimethyl-4-oxobutyl]-2-ethoxypyridine-3-carboxamide] returned a GI50 in assay [1] (Homo sapiens, Ramos, 72 h) of 410 nM. This molecule showed a 50% inhibitory concentration (IC50) in assay [2] of 210 nM.

Molecule `CCOc1cc(F)c(Cl)cc1C(=O)NCC(C)(C)CC(=O)Nc1c(C(C)OC)n(C)n(-c2ccccc2)c1=O` (stereo not drawn) [Example 122, 5-Chloro-2-ethoxy-4-fluoro-N-(4-{[5-(1-methoxyethyl)-1-methyl-3-oxo-2-phenyl-2,3-dihydro-1H-pyrazol-4-yl]amino}-2,2-dimethyl-4-oxobutyl)benzamide] yielded a GI50 in assay [1] (Homo sapiens, Ramos, 72 h) of 140 nM. This molecule also came in with a 50% inhibitory concentration (IC50) in assay [2] of 460 nM.

In turn, `CCOc1cc(F)c(Cl)cc1C(=O)NCC(C)(C)CC(=O)Nc1c([C@@H](C)OC)n(C)n(-c2ccccc2)c1=O` [Example 124, 5-Chloro-2-ethoxy-4-fluoro-N-(4-{[5-((1R)-1-methoxyethyl)-1-methyl-3-oxo-2-phenyl-2,3-dihydro-1H-pyrazol-4-yl]amino}-2,2-dimethyl-4-oxobutyl)benzamide] registered a 50% growth inhibitory concentration (GI50) in assay [1] (Homo sapiens, Ramos, 72 h) of 140 nM. This molecule gave a concentration for half-maximal inhibition (IC50) in assay [2] of 38 nM.

In assay [1], `CCOc1ncc(Cl)cc1C(=O)NCC(C)(C)CC(=O)Nc1c(C(C)NC)n(C)n(-c2ccccc2)c1=O` (single isomer, unassigned; (-)) [Example 86, (−)-5-Chloro-N-[2,2-dimethyl-4-({1-methyl-5-[1-(methylamino)ethyl]-3-oxo-2-phenyl-2,3-dihydro-1H-pyrazol-4-yl}amino)-4-oxobutyl]-2-ethoxypyridine-3-carboxamide] gave a GI50 of 180 nM. In assay [2], this molecule displayed an IC50 of 90 nM.

With `CCOc1ncc(Br)cc1C(=O)NCC(C)(C)CC(=O)Nc1c(C(C)CN(C)C)n(C)n(-c2ccccc2)c1=O` (stereo not drawn) [Example 74, 5-Bromo-N-[4-({5-[2-(dimethylamino)-1-methylethyl]-1-methyl-3-oxo-2-phenyl-2,3-dihydro-1H-pyrazol-4-yl}amino)-2,2-dimethyl-4-oxobutyl]-2-ethoxypyridine-3-carboxamide], the GI50 in assay [1] (Homo sapiens, Ramos, 72 h) amounted to 470 nM. For the same molecule, half-maximal inhibition in assay [2] (IC50) required 180 nM.
